Experimental data reported in publication PMC10584170, “Machine learning-based phenotypic imaging to characterise the targetable biology of Plasmodium falciparum male gametocytes for the development of transmission-blocking antimalarials” (PLOS Pathogens, 2023).
Read-outs that look alike come from different tables or passages of the source.

What was measured:
[1] = test system: P. falciparum male gametocytes; assay: P. falciparum Dual Gamete Formation Assay (PfDGFA), male readout (exflagellation); assay type: cell-based, Plasmodium falciparum NF54; settings: for Activity: hit = >50% inhibition in male or female readout in at least 3 replicates, 0 = no class assigned
Method: (§1) P. falciparum NF54 (originally isolated from an imported malaria case in the Netherlands in the 1980s; BEI Resources, cat. No. MRA-1000) strain asexual parasites were maintained between 0.3–5% parasitaemia by regular passage in complete culture medium (RPMI supplemented with 25 mM HEPES, 50 μg ml^−1 hypoxanthine, 4.8 g l^−1 NaHCO3, 2mM L-glutamine, 5% pooled type AB serum, 0.5% Albumax II (Gibco)) at 4% haematocrit in washed whole blood (National Blood and Transfusion Service or Centro de Transfusiones de la Comunidad de Madrid CTCM) under a 1% O2/3% CO2/96% N2 environment. Gametocytes were induced by seeding culture flasks at 2% parasitaemia/4% haematocrit and subjecting them to daily medium changes for 14 days whilst maintaining a temperature of 37°C at all times. On Day 14, the maturity of gametocytes was assessed by quantifying male gametogenesis (exflagellation). A 20 μl sample of gametocyte culture was mixed with equal volume of ookinete medium (complete culture medium supplemented with 0.1 μM xanthurenic acid) at room temperature and transferred to a haemocytometer. After 20 min at room temperature, exflagellation was accurately quantified as described in Delves et al. 2016 [17].
(§2) The Pf DGFA was performed as described in Delves et al. 2016 [17]. […] Plates were then incubated for 24 h at 37°C in a humidified box under a 1% O2/3% CO2/96% N2 gas mix. Gametogenesis was triggered by addition of 10 μl per well of ookinete medium + 0.27 μg ml^-1 Cy3-labelled anti-Pfs25 antibody. Plates were incubated on a metal block at 4°C for 4 min to ensure even cooling, then 28°C for a further 4 min. Exflagellation was recorded by capturing 10 frames over 1 s under brightfield illumination using a x4 objective with a 1.5x zoom (effectively x6) attached to an automated Nikon Ti fluorescence microscope. After recording exflagellation, plates were incubated for a further 24 h in the dark at 28°C to ensure maximal expression of Pfs25 by female gametes. The plates were then returned to the microscope and female gametes imaged at x6 using fluorescence microscopy.
(§3) Exflagellation centres and female gametes were quantified using custom image analysis pipelines developed within ICY Bioimage Analysis (https://icy.bioimageanalysis.org/).

[2] = test system: P. falciparum female gametocytes; assay: P. falciparum Dual Gamete Formation Assay (PfDGFA), female readout (Pfs25-positive female gametes); assay type: cell-based, Plasmodium falciparum NF54
Method: as §1, §2, §3

[3] = 2µM, 24h preincubation with gametocytes prior to induction of gametogenesis, average of replicates
[4] = 2µM, 24h preincubation with gametocytes prior to induction of gametogenesis, replicate R1
[5] = 2µM, 24h preincubation with gametocytes prior to induction of gametogenesis, replicate R3
[6] = 2µM, 24h preincubation with gametocytes prior to induction of gametogenesis, replicate R4
[7] = 2µM, 24h preincubation, hits selected on >50% inhibition in the male readout across replicates
[8] = PfDGFA at 2µM, 24h preincubation
[9] = 2µM, 24h preincubation, hits selected on >50% inhibition in the female readout across replicates
[10] = PfDGFA at 2µM, 24h preincubation with gametocytes prior to induction of gametogenesis, replicate R1
[11] = PfDGFA at 2µM, 24h preincubation with gametocytes prior to induction of gametogenesis, replicate R4
[12] = PfDGFA at 2µM, 24h preincubation, average of replicates
[13] = PfDGFA at 2µM, 24h preincubation with gametocytes, average of replicates
[14] = PfDGFA at 2µM, 24h preincubation with gametocytes, replicate R1
[15] = PfDGFA at 2µM, 24h preincubation with gametocytes, replicate R3
[16] = PfDGFA at 2µM, 24h preincubation with gametocytes, replicate R4

| SMILES | Average inhibition male (%) [1, 3] | % inhibition male (individual replicates) R1 [1, 4] | % inhibition male (individual replicates) R3 [1, 5] | % inhibition male (individual replicates) R4 [1, 6] | HitlevelM [1, 7] | Activity [1, 8] | Average inhibition female (%) [2, 3] | % inhibition female (individual replicates) R1 [2, 4] | % inhibition female (individual replicates) R3 [2, 5] | % inhibition female (individual replicates) R4 [2, 6] | HitlevelF [2, 9] | further results |
| --- | --- | --- | --- | --- | --- | --- | --- | --- | --- | --- | --- | --- |
| Cc1cccc(-c2cccc(CNc3nc(NCCc4ccc(O)cc4)nc(N4CCNCC4)n3)c2)c1.O=C(O)C(F)(F)F [TCMDC-133810] | -4.6% | -4.0% | -16.3% | 16.2% | 0 | 0 | 7.6% | 16.4% | -13.0% | 18.6% | 0 |  |
| CN(C)CCCOc1ccccc1CN1CC[C@H](NC(=O)c2ccc(Cl)c(Cl)c2)C1.O=C(O)C(F)(F)F [TCMDC-140310] | 6.1% | 4.0% |  | 4.7% | 0 | 0 | 10.5% | 10.3% | 9.3% | 14.4% | 0 |  |
| COc1cccc(Cc2cnc3nc(N)nc(N)c3c2C)c1 [TCMDC-138060] |  |  |  |  |  |  |  |  |  |  |  | % inhibition male (individual replicates) R1 [1, 10]: 14.7%; % inhibition male (individual replicates) R4 [1, 11]: -36.5%; Average inhibition male (%) [1, 12]: 7.0%; % inhibition female (individual replicates) R1 [2, 10]: -4.3%; % inhibition female (individual replicates) R3 ([2]; PfDGFA at 2µM, 24h preincubation with gametocytes prior to induction of gametogenesis, replicate R3): -2.0%; % inhibition female (individual replicates) R4 [2, 11]: 3.5%; Average inhibition female (%) [2, 12]: -1.4% |
| CCc1c(CCNCCCCCCNC(C)Cc2ccc3c(c2CC)OCO3)ccc(OC)c1OC.Cl (stereo not shown) [TCMDC-132052] |  |  |  |  |  |  |  |  |  |  |  | Average inhibition male (%) [1, 13]: 79.1%; % inhibition male (individual replicates) R1 [1, 14]: 84.5%; % inhibition male (individual replicates) R3 [1, 15]: 62.9%; % inhibition male (individual replicates) R4 [1, 16]: 90.9%; HitlevelM ([1]; number of replicates with >50% inhibition in the male readout, 2µM): 4; Average inhibition female (%) [2, 13]: 26.4%; % inhibition female (individual replicates) R1 [2, 14]: 34.8%; % inhibition female (individual replicates) R3 [2, 15]: 2.4%; % inhibition female (individual replicates) R4 [2, 16]: 23.2%; HitlevelF ([2]; number of replicates with >50% inhibition in the female readout, 2µM): 0 |
| c1ccc2sc(Sc3ncnc4sccc34)nc2c1 [TCMDC-125539] |  |  |  |  |  |  |  |  |  |  |  | Selectivity Ratio M ([1]; HepG2 Tox50 versus male IC50): 337.73; inhibition at 2 µM ([1]; Plasmodium falciparum, 2µM, 24h preincubation with gametocytes, average of replicates, read-out: Average inhibition male (%)): 97.1%; inhibition at 2 µM ([1]; Plasmodium falciparum, 2µM, 24h preincubation with gametocytes, replicate R1, read-out: % inhibition male (individual replicates) R1): 100%; inhibition at 2 µM ([1]; Plasmodium falciparum, 2µM, 24h preincubation with gametocytes, replicate R2, read-out: % inhibition male (individual replicates) R2): 97.4%; inhibition at 2 µM ([1]; Plasmodium falciparum, 2µM, 24h preincubation with gametocytes, replicate R3, read-out: % inhibition male (individual replicates) R3): 95.7%; inhibition at 2 µM ([1]; Plasmodium falciparum, 2µM, 24h preincubation with gametocytes, replicate R4, read-out: % inhibition male (individual replicates) R4): 94.9%; IC50 ([1]; Plasmodium falciparum, PfDGFA, 24 h incubation with gametocytes before induction, exflagellation readout, read-out: Male IC50): 300 nM; Selectivity ratio F ([2]; HepG2 Tox50 versus female IC50): 340.93; inhibition at 2 µM ([2]; Plasmodium falciparum, 2µM, 24h preincubation with gametocytes, average of replicates, read-out: Average inhibition female (%)): 60%; inhibition at 2 µM ([2]; Plasmodium falciparum, 2µM, 24h preincubation with gametocytes, replicate R1, read-out: % inhibition female (individual replicates) R1): 39.3%; inhibition at 2 µM ([2]; Plasmodium falciparum, 2µM, 24h preincubation with gametocytes, replicate R2, read-out: % inhibition female (individual replicates) R2): 92.2%; inhibition at 2 µM ([2]; Plasmodium falciparum, 2µM, 24h preincubation with gametocytes, replicate R3, read-out: % inhibition female (individual replicates) R3): 35.1%; inhibition at 2 µM ([2]; Plasmodium falciparum, 2µM, 24h preincubation with gametocytes, replicate R4, read-out: % inhibition female (individual replicates) R4): 73.5%; IC50 ([2]; Plasmodium falciparum, PfDGFA, 24 h incubation with gametocytes before induction, female gamete readout, read-out: Female IC50): 290 nM |
| COC(=O)c1ccc(-c2ccc(-c3cccnc3)cc2C)cc1 [TCMDC-139074] | 18.8% | 21.7% | 27.9% | 3.9% | 0 | 0 | 13.5% | 26.9% | 10.2% | 0.5% | 0 |  |
| Cl.c1ccc2c(NCCCCCCCNc3ccnc4ccccc34)ccnc2c1 [TCMDC-137897] | 23.4% | 24.9% | -14.5% | 54.2% |  |  | 26.1% | 24.7% | -5.3% | 43.2% |  | HitlevelM ([1]; 2µM, 24h preincubation, number of replicates with >50% inhibition in the male readout): 1; HitlevelF ([2]; 2µM, 24h preincubation, number of replicates with >50% inhibition in the female readout): 0 |
